Source: patent publication US12285012B2, “Compositions comprising pyridine carboxylate herbicides with acetolactate synthase (ALS) inhibitor herbicides” (Corteva Agriscience LLC, priority 2018, dated 2025)
Values joined by “and” are separate entries in the source; they are usually repeats but may differ in a detail not shown here. Equal values may be shown once. Read-outs that look alike come from different tables or passages of the source.

Tests used:
[1] = test system: Canadian thistle (CIRAR, Cirsium arvense); experiment: Greenhouse postemergence herbicidal effect; type: in vivo
How it was run: (§1)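 Visual injury ratings (0 = no injury, 100 = complete kill) were taken 20–22 d after treatment relative to solvent-blank controls. Applications were made to plants at the second or third true leaf stage, using emulsifiable concentrates with cloquintocet-mexyl safener.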

[2] = test system: Russian thistle (SASKR, Salsola kali); experiment: Greenhouse postemergence herbicidal effect; type: in vivo
How it was run: as §1

[3] = test system: chickweed (STEME, Stellaria media); experiment: Greenhouse postemergence herbicidal effect; type: in vivo; details: for Obs % visual injury: STEME
How it was run: as §1

[4] = test system: pigweed (AMARE, Amaranthus retroflexus); experiment: Greenhouse postemergence herbicidal effect; type: in vivo; details: for Obs % visual injury: AMARE
How it was run: as §1

[5] = test system: pineapple weed (MATMT, Matricaria discoidea); experiment: Greenhouse postemergence herbicidal effect; type: in vivo; details: for Obs % visual injury: MATMT
How it was run: as §1

[6] = test system: wild buckwheat (POLCO, Polygonum convolvulus); experiment: Greenhouse postemergence herbicidal effect; type: in vivo; details: for Obs % visual injury: POLCO
How it was run: as §1

[7] = test system: wild chamomile (MATCH, Matricaria chamomilla); experiment: Greenhouse postemergence herbicidal effect; type: in vivo; details: for Obs % visual injury: MATCH
How it was run: as §1

[8] = test system: wild pansy (VIOTR, Viola tricolor); experiment: Greenhouse postemergence herbicidal effect; type: in vivo; details: for Obs % visual injury: VIOTR
How it was run: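 Injury was rated visually after 20-22 d on a 0 (none) to 100% (complete kill) scale relative to solvent-sprayed controls, with sub-irrigation to avoid wash-off. Rates were given in g ae/ha or g ai/ha depending on component.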

[9] = test system: winter rape (BRSNW, Brassica napus); experiment: Greenhouse postemergence herbicidal effect; type: in vivo; details: for Obs % visual injury: BRSNW
How it was run: as §1

[10] = test system: common lambsquarters (CHEAL, Chenopodium album L.); experiment: Greenhouse postemergence herbicidal effect; type: in vivo; details: for Obs % visual injury: CHEAL
spring wheat (TRZAS) = type: in vivo, Triticum aestivum; details: for Obs % visual injury: TRZAS
How it was run: as §1

C#CCOC(=O)c1nc(-c2ccc3cc[nH]c3c2F)c(F)c(N)c1Cl [Compound B, propargyl 4-amino-3-chloro-5-fluoro-6-(7-fluoro-1H-indol-6-yl)pyridine-2-carboxylate] was tested. Which “Obs % visual injury” value ([1]; CIRAR, Compound B 5 g/ha) did it give?
The value was 50%.

And the pest or weed control at 10 g/ha ([1]; Cirsium arvense, post-emergence, 10 g/ha, read-out: % visual injury, Obs)?
Its pest or weed control at 10 g/ha is 55%.

What about the “Obs % visual injury” value ([2]; SASKR, Compound B 10 g/ha) of the same compound?
Its value is 63%.

What about the “% visual injury, Obs” value ([3]; 10 g/ha) of the same compound?
Its value is 90%.

What about the “Obs % visual injury” value ([3]; Compound B 5 g/ha) of the same compound?
Its value is 85%.

What about the “Obs % visual injury” value ([3]; Compound B 10 g/ha) of the same compound?
The value was 95%.

What about the “% visual injury, Obs” value ([4]; 10 g/ha) of the same compound?
Its value is 73%.

And the “Obs % visual injury” value ([4]; Compound B 5 g/ha)?
Its value is 93%.

And the “Obs % visual injury” value ([4]; Compound B 10 g/ha)?
Its value is 84% and 94%.

What about the “Obs % visual injury” value ([5]; Compound B 10 g/ha) of the same compound?
Its value is 20%.

And the “% visual injury, Obs” value ([6]; 10 g/ha)?
Its value is 90%.

What about the “Obs % visual injury” value ([6]; Compound B 5 g/ha) of the same compound?
Its value is 88%.

And the “Obs % visual injury” value ([6]; Compound B 10 g/ha)?
The value was 97% and 87%.

What about the “Obs % visual injury” value ([7]; Compound B 10 g/ha) of the same compound?
The value was 20% and 18%.

What about the “% visual injury, Obs” value ([8]; 10 g/ha) of the same compound?
The value was 8%.

What about the “Obs % visual injury” value ([8]; Compound B 5 g/ha) of the same compound?
Its value is 20%.

What about the “Obs % visual injury” value ([8]; Compound B 10 g/ha) of the same compound?
Its value is 18%.

And the “Obs % visual injury” value ([9]; Compound B 10 g/ha)?
The value was 93%.

What about the “% visual injury, Obs” value ([10]; 10 g/ha) of the same compound?
Its value is 93%.

And the “Obs % visual injury” value ([10]; Compound B 5 g/ha)?
The value was 96%.

What about the “Obs % visual injury” value ([10]; Compound B 10 g/ha) of the same compound?
Its value is 94% and 96%.

What about the “Obs % visual injury” value (spring wheat (TRZAS); Compound B 5 g/ha) of the same compound?
Its value is 13%.

What about the “Obs % visual injury” value (spring wheat (TRZAS); Compound B (without cloquintocet-mexyl safener) 10 g/ha) of the same compound?
Its value is 28%.

COc1ncc(F)c2nc(S(=O)(=O)Nc3c(F)cccc3F)nn12 [Florasulam, florasulam] was tested. Which “% visual injury Obs” value ([1]; Florasulam 3.75 g/ha) did it give?
Its value is 68%.

And the “% visual injury” value ([1]; Florasulam 5 g/ha)?
The value was 75%.

And the “% visual injury” value ([2]; Florasulam 5 g/ha)?
The value was 85%.

And the “% visual injury” value ([3]; Florasulam 5 g/ha)?
The value was 100%.

What about the “% visual injury Obs” value ([4]; Florasulam 3.75 g/ha) of the same compound?
Its value is 100%.

And the “% visual injury” value ([5]; Florasulam 5 g/ha)?
Its value is 95%.

What about the “Obs % visual injury” value ([5]; Florasulam 5 g/ha) of the same compound?
Its value is 65%.

What about the “% visual injury Obs” value ([6]; Florasulam 3.75 g/ha) of the same compound?
Its value is 90%.

What about the “% visual injury” value ([6]; Florasulam 5 g/ha) of the same compound?
The value was 87%.

What about the “% visual injury Obs” value ([7]; Florasulam 3.75 g/ha) of the same compound?
Its value is 85%.

And the “% visual injury” value ([7]; Florasulam 5 g/ha)?
Its value is 85%.

What about the “Obs % visual injury” value ([7]; Florasulam 5 g/ha) of the same compound?
Its value is 20%.

What about the “% visual injury” value ([8]; Florasulam 5 g/ha) of the same compound?
Its value is 10%.

And the “Obs % visual injury” value ([9]; Florasulam 5 g/ha)?
The value was 35%.

What about the “% visual injury Obs” value ([9]; Florasulam 3.75 g/ha) of the same compound?
The value was 95%.

And the “% visual injury” value ([9]; Florasulam 5 g/ha)?
Its value is 97%.

What about the “% visual injury Obs” value ([10]; Florasulam 3.75 g/ha) of the same compound?
The value was 0%.

And the “% visual injury Obs” value (spring wheat (TRZAS); Florasulam 3.75 g/ha)?
The value was 0%.

And the “% visual injury” value (spring wheat (TRZAS); Florasulam 5 g/ha)?
The value was 0%.
